Experimental data as given in publication PMC6364417, “Kinase inhibitor library screening identifies synergistic drug combinations effective in sensitive and resistant melanoma cells” (Journal of Experimental & Clinical Cancer Research : CR, 2019).

Legend:
Assay in all cases: Kinase inhibitor library screening, PrestoBlue cell viability, 1 or 10 μM, 72 h
[1] = tested on: A375-XP cells (Vemurafenib-resistant); conditions: A375 XP, 72 h
501Mel cells (parental) = conditions: 501Mel Parental, 72 h
Outline: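 Values are % viability versus untreated wells, measured by PrestoBlue after a 72 h drug exposure. Screens covered the parental line plus sublines rendered resistant to Vemurafenib or Dabrafenib, each analysed in at least duplicate.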

[2] = tested on: IGR37-GP cells (Dabrafenib-resistant); conditions: IGR37 GP, 72 h
[3] = tested on: IGR37-XP cells (Vemurafenib-resistant); conditions: IGR37 XP, 72 h
[4] = tested on: 501Mel-GP cells (Dabrafenib-resistant); conditions: 501Mel GP, 72 h
IGR37 cells (parental) = conditions: IGR37 Parental, 72 h
A375 cells (parental) = conditions: A375 Parental, 72 h
[5] = tested on: A375-GP cells (Dabrafenib-resistant); conditions: A375 GP, 72 h
[6] = tested on: 501Mel-XP cells (Vemurafenib-resistant); conditions: 501Mel XP, 72 h

Structure (SMILES)	cell viability (kinase inhibitor library screening) ([1]; 1μΜ)	cell viability (kinase inhibitor library screening) ([1]; 10μΜ)	cell viability (kinase inhibitor library screening) (501Mel cells (parental); 1μΜ)	cell viability (kinase inhibitor library screening) (501Mel cells (parental); 10μΜ)	cell viability (kinase inhibitor library screening) ([2]; 10μΜ)	cell viability (kinase inhibitor library screening) ([3]; 1μΜ)	cell viability (kinase inhibitor library screening) ([3]; 10μΜ)	cell viability (kinase inhibitor library screening) ([4]; 1μΜ)	cell viability (kinase inhibitor library screening) ([4]; 10μΜ)	cell viability (kinase inhibitor library screening) (IGR37 cells (parental); 1μΜ)	cell viability (kinase inhibitor library screening) (A375 cells (parental); 10μΜ)	cell viability (kinase inhibitor library screening) (A375 cells (parental); 1μΜ)	cell viability (kinase inhibitor library screening) ([5]; 1μΜ)	cell viability (kinase inhibitor library screening) ([5]; 10μΜ)	cell viability (kinase inhibitor library screening) ([6]; 1μΜ)	cell viability (kinase inhibitor library screening) ([6]; 10μΜ)	cell viability (kinase inhibitor library screening) ([2]; 1μΜ)	cell viability (kinase inhibitor library screening) (IGR37 cells (parental); 10μΜ)	also measured
CC(=O)c1c(C)c2cnc(Nc3ccc(N4CCNCC4)cn3)nc2n(C2CCCC2)c1=O.Cl [PD 0332991 (Palbociclib) HCl]	74.5%	63.1%	89.7%	80.1%	78.0%	98.1%	28.9%	83.8%	66.3%	96.5%	59.1%	78.9%	77.9%	57.2%	76.9%	25.1%	–	–	–
CN(c1ncccc1CNc1nc(Nc2ccc3c(c2)CC(=O)N3)ncc1C(F)(F)F)S(C)(=O)=O [PF-00562271]	–	–	–	–	–	–	–	–	–	–	–	–	–	–	–	–	–	–	cell viability, A375 XP, 1μΜ ([1]; 1μΜ, in %): 107.5; cell viability, A375 XP, 10μΜ ([1]; 10μΜ, in %): 3.4; cell viability, 501Mel Parental, 10μΜ (501Mel cells (parental); 10μΜ, in %): 1.5; cell viability, IGR37 GP, 10μΜ ([2]; 10μΜ): 2.9%; cell viability, IGR37 XP, 10μΜ ([3]; 10μΜ): 1.9%; cell viability, IGR37 XP, 1μΜ ([3]; 1μΜ, in %): 82.7; cell viability, 501Mel GP, 1μΜ ([4]; 1μΜ, in %): 98.0; cell viability, 501Mel GP, 10μΜ ([4]; 10μΜ, in %): 0.9; cell viability, IGR37 Parental, 1μΜ (IGR37 cells (parental); 1μΜ, in %): 103.3; cell viability, IGR37 Parental, 10μΜ (IGR37 cells (parental); 10μΜ, in %): 3.6; cell viability, A375 Parental, 1μΜ (A375 cells (parental); 1μΜ, in %): 104.9; cell viability, A375 Parental, 10μΜ (A375 cells (parental); 10μΜ, in %): 4.0; cell viability, A375 GP, 1μΜ ([5]; 1μΜ, in %): 92.2; cell viability, A375 GP, 10μΜ ([5]; 10μΜ, in %): 4.9; cell viability, 501Mel XP, 1μΜ ([6]; 1μΜ, in %): 94.1; cell viability, 501Mel XP, 10μΜ ([6]; 10μΜ, in %): 0.458
CC(=O)NCC(=O)N1[C@@H]2CC[C@H]1c1ccc(Nc3ncc(C(F)(F)F)c(NC4CCC4)n3)cc12 [PF-03814735]	40.9%	12.4%	82.8%	24.0%	10.4%	69.3%	2.0%	89.2%	8.3%	88.9%	8.5%	32.3%	35.1%	3.7%	72.2%	3.8%	91.2%	37.6%	–
CN(C)C1CCN(C(=O)c2ccc(NC(=O)Nc3ccc(-c4nc(N5CCOCC5)nc(N5CCOCC5)n4)cc3)cc2)CC1 [PF-05212384 (PKI-587)]	–	–	–	–	–	–	–	–	–	–	–	–	–	–	–	–	–	–	Cell viability in kinase inhibitor library screening, A375 XP, 1μΜ ([1]; 1μΜ): 33.4; Cell viability in kinase inhibitor library screening, A375 XP, 10μΜ ([1]; 10μΜ): 11.6; Cell viability in kinase inhibitor library screening, 501Mel Parental, 1μΜ (501Mel cells (parental); 1μΜ, in %): 22.6; Cell viability in kinase inhibitor library screening, 501Mel Parental, 10μΜ (501Mel cells (parental); 10μΜ, in %): 1.3; Cell viability in kinase inhibitor library screening, IGR37 GP, 10μΜ ([2]; 10μΜ): 6.8%; Cell viability in kinase inhibitor library screening, IGR37 GP, 1μΜ ([2]; 1μΜ, in %): 39.4; Cell viability in kinase inhibitor library screening, IGR37 XP, 10μΜ ([3]; 10μΜ): 3%; Cell viability in kinase inhibitor library screening, IGR37 XP, 1μΜ ([3]; 1μΜ, in %): 33.0; Cell viability in kinase inhibitor library screening, 501Mel GP, 1μΜ ([4]; 1μΜ, in %): 29.3; Cell viability in kinase inhibitor library screening, 501Mel GP, 10μΜ ([4]; 10μΜ, in %): 2.2; Cell viability in kinase inhibitor library screening, IGR37 Parental, 1μΜ (IGR37 cells (parental); 1μΜ, in %): 35.0; Cell viability in kinase inhibitor library screening, IGR37 Parental, 10μΜ (IGR37 cells (parental); 10μΜ, in %): 14.2; Cell viability in kinase inhibitor library screening, A375 Parental, 10μΜ (A375 cells (parental); 10μΜ): 13.9; Cell viability in kinase inhibitor library screening, A375 Parental, 1μΜ (A375 cells (parental); 1μΜ): 35.9; Cell viability in kinase inhibitor library screening, A375 GP, 1μΜ ([5]; 1μΜ): 34.6; Cell viability in kinase inhibitor library screening, A375 GP, 10μΜ ([5]; 10μΜ): 13.9; Cell viability in kinase inhibitor library screening, 501Mel XP, 1μΜ ([6]; 1μΜ, in %): 53.1; Cell viability in kinase inhibitor library screening, 501Mel XP, 10μΜ ([6]; 10μΜ, in %): 0.9
Cc1[nH]c(/C=C2\C(=O)Nc3ccc(S(=O)(=O)Cc4c(Cl)cccc4Cl)cc32)c(C)c1C(=O)N1CCC[C@@H]1CN1CCCC1 [PHA-665752]	99.9%	0.9%	100.2%	0.232%	0.8%	–	0.9%	86.9%	-0.7%	99.2%	1.9%	98.9%	96.1%	0.5%	70.6%	-0.7%	98.8%	0.24%	–
CCc1cccc(CC)c1NC(=O)N1Cc2n[nH]c(NC(=O)c3ccc(N4CCN(C)CC4)cc3)c2C1 [PHA-680632]	93.5%	51.3%	104.0%	95.7%	78.7%	96.4%	40.2%	105.0%	79.1%	93.9%	37.5%	85.1%	81.0%	37.4%	96.6%	75.1%	92.2%	73.1%	–
CNC(=O)c1nn(C)c2c1C(C)(C)Cc1cnc(Nc3ccc(N4CCN(C)CC4)cc3)nc1-2 [PHA-848125]	66.4%	7.5%	75.4%	14.7%	66.9%	75.2%	31.7%	63.8%	28.1%	95.1%	5.7%	56.7%	57.9%	4.3%	75.1%	14.5%	78.8%	70.2%	–
CCCCCCCCCCCCc1ccc(S(=O)(=O)Nc2nncs2)cc1 [PHT-427]	106.9%	100.2%	99.9%	96.2%	98.8%	–	79.8%	115.7%	95.0%	–	98.4%	–	107.5%	93.5%	–	85.4%	95.0%	110.3%	–
